The results in this text go back to patent publication US20230391772A1, “METHODS AND COMPOSITIONS FOR TARGETED PROTEIN DEGRADATION” (Ranok Therapeutics (Hangzhou) Co. Ltd., priority 2020, published 2023).

Experiment [1] deals with T1, KRAS(G12C) (Homo sapiens, UniProt P01116, G12C). Put plainly: KRAS(G12C) Western blot protein degradation assay in LU65A cells. Type of experiment: cell-based. Also noted: LU65A human lung cancer cell line, which expresses KRAS(G12C); host or cells: LU65A. The note with it: 6 hr. Put shortly: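 Cells treated with compound at various concentrations at 37 °C for 48 hr (MIA PaCa-2) or 6 hr (LU65A), then lysed in RIPA. Protein-normalized lysates immunoblotted for KRAS with β-actin, fluorescence quantified; DC50 is the concentration giving 50% of maximal KRAS degradation.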

The test system of experiment [2] is MIA PaCa-2 human pancreatic carcinoma. Kind of experiment: MIA PaCa-2 CCK-8 proliferation assay. The note with it: Homo sapiens, MIA PaCa-2, 72 h, MIA PaCa-2 cells. Type of experiment: cell-based. The essentials:
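Three KRAS(G12C) lines are used, MIA PaCa-2 at two mutant copies and the NSCLC lines NCI-H358 and NCI-H23 at one. Each compound is titrated 3-fold from 20 μM to 1.02 nM, and proliferation is scored by CCK-8.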

In experiment [3] the target is T1, KRAS(G12C). Kind of experiment: KRAS(G12C)/SOS1 homogeneous time-resolved fluorescence (HTRF) assay. Also noted: purchased Cisbio 63ADK000CB16PEG. Conditions: absence of GTP, 4° C. for 3 hr, read-out: KRAS (G12C) binding. Put shortly: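 HTRF kit measuring compound-induced block of KRAS(G12C)-SOS1 interaction without GTP. Compounds tested as 3-fold serial dilutions down to 1.02 nM, incubated with reaction components 3 h at 4 °C in sealed plates before fluorescence read.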
In general terms: TR-FRET usually uses a lanthanide donor and a delayed reading to cut background.

The structures appear in SMILES notation.

T1 sequence (P01116 1-188 isoform P01116-2 G12C): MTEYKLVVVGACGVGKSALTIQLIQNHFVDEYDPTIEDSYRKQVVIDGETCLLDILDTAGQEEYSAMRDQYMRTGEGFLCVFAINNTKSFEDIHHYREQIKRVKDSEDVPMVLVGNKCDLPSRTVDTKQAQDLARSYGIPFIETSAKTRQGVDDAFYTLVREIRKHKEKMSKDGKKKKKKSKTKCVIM

Usually DC50 stands for the midpoint of the concentration-degradation curve. A low value points to a more potent degrader. The EC50 is the concentration needed to bring the measured effect to its halfway point. Read a low EC50 as higher potency in that assay. As to `C=CC(=O)N1CCN(c2nc(OC[C@@H]3C[C@H](N4CCN(CC5CCN(Cc6ccc(-n7c(C(=O)NCC)nnc7-c7cc(C(C)C)c(O)cc7O)cc6)CC5)CC4)CN3C)nc3c2CCN(c2cccc4cccc(Cl)c24)C3)C[C@@H]1CC#N` [Compound 276, 4-(4-{[4-({4-[(3S,5S)-5-({[7-(8-chloronaphthalen-1-yl)-4-[(3S)-3-(cyanomethyl)-4-(prop-2-enoyl)piperazin-1-yl]-5H,6H,8H-pyrido[3,4-d]pyrimidin-2-yl]oxy}methyl)-1-methylpyrrolidin-3-yl]piperazin-1-yl}methyl)piperidin-1-yl]methyl}phenyl)-5-(2,4-dihydroxy-5-isopropylphenyl)-N-ethyl-1,2,4-triazole-3-carboxamide], the DC50 in experiment [1] was greater than 1000 nM. This compound displayed an EC50 in experiment [2] of less than 100 nM. Moreover, the IC50 in experiment [3] is less than 100 nM.
The compound `C=CC(=O)N1CCN(c2nc(OC[C@@H]3C[C@H](N4CCN(Cc5ccc(-n6c(O)nnc6-c6cc(C(C)C)c(O)cc6O)cc5)CC4)CN3C)nc3c2CCN(c2cccc4ccc(F)c(Cl)c24)C3)C[C@@H]1CC#N` [Compound 277, 2-[(2S)-4-[7-(8-chloro-7-fluoronaphthalen-1-yl)-2-{[(2S,4S)-4-[4-({4-[3-(2,4-dihydroxy-5-isopropylphenyl)-5-hydroxy-1,2,4-triazol-4-yl]phenyl}methyl)piperazin-1-yl]-1-methylpyrrolidin-2-yl]methoxy}-5H,6H,8H-pyrido[3,4-d]pyrimidin-4-yl]-1-(prop-2-enoyl)piperazin-2-yl]acetonitrile] displayed a DC50 in experiment [1] greater than 1000 nM. This compound also registered an EC50 in experiment [2] of 100 to 1000 nM. The IC50 in experiment [3] was less than 100 nM.
Taken in the same sequence, the figures for `C=CC(=O)N1CCN(c2nc(OC[C@@H]3C[C@H](N4CCN(Cc5ccc(-n6c(C(=O)NCC)nnc6-c6cc(C(C)C)c(O)cc6O)cc5)CC4)CN3C)nc3c2CCN(c2cccc4ccc(F)c(Cl)c24)C3)C[C@@H]1CC#N` [Compound 278, 4-[4-({4-[(3S,5S)-5-({[7-(8-chloro-7-fluoronaphthalen-1-yl)-4-[(3S)-3-(cyanomethyl)-4-(prop-2-enoyl)piperazin-1-yl]-5H,6H,8H-pyrido[3,4-d]pyrimidin-2-yl]oxy}methyl)-1-methylpyrrolidin-3-yl]piperazin-1-yl}methyl)phenyl]-5-(2,4-dihydroxy-5-isopropylphenyl)-N-ethyl-1,2,4-triazole-3-carboxamide] were 100 to 1000 nM, 100 to 1000 nM and less than 100 nM.
For `C=CC(=O)N1CCN(c2nc(OC[C@@H]3C[C@H](N4CCN(Cc5ccc(-n6c(O)nnc6-c6cc(C(C)C)c(O)cc6O)cc5)CC4)CN3C)nc3c2CCN(c2cccc4cccc(C)c24)C3)C[C@@H]1CC#N` [Compound 279, 2-[(2S)-4-(2-{[(2S,4S)-4-[4-({4-[3-(2,4-dihydroxy-5-isopropylphenyl)-5-hydroxy-1,2,4-triazol-4-yl]phenyl}methyl)piperazin-1-yl]-1-methylpyrrolidin-2-yl]methox-y}-7-(8-methylnaphthalen-1-yl)-5H,6H,8H-pyrido[3,4-d]pyrimidin-4-yl)-1-(prop-2-enoyl)piperazin-2-yl]acetonitrile], in experiment [1], the DC50 lay within 100 to 1000 nM. This compound came in with an EC50 in experiment [2] of 100 to 1000 nM. Moreover, the IC50 in experiment [3] was less than 100 nM.
With `C=CC(=O)N1CCN(c2nc(OC[C@@H]3C[C@H](N4CCN(Cc5ccc(-n6c(C(=O)NCC)nnc6-c6cc(C(C)C)c(O)cc6O)cc5)CC4)CN3C)nc3c2CCN(c2cccc4cccc(C)c24)C3)C[C@@H]1CC#N` [Compound 280, 4-[4-({4-[(3S,5S)-5-[({4-[(3S)-3-(cyanomethyl)-4-(prop-2-enoyl)piperazin-1-yl]-7-(8-methylnaphthalen-1-yl)-5H,6H,8H-pyrido[3,4-d]pyrimidin-2-yl}oxy)methyl]-1-methylpyrrolidin-3-yl]piperazin-1-yl}methyl)phenyl]-5-(2,4-dihydroxy-5-iso-propylphenyl)-N-ethyl-1,2,4-triazole-3-carboxamide], the DC50 in experiment [1] was 100 to 1000 nM. This compound also showed an EC50 in experiment [2] of less than 100 nM. In experiment [3], the IC50 is less than 100 nM.
In experiment [1], `C=CC(=O)N1CCN(c2nc(OC[C@@H]3CC[C@H](CN4CCN(Cc5ccc(-n6c(O)nnc6-c6cc(C(C)C)c(O)cc6O)cc5)CC4)N3C)nc3c2CCN(c2cccc(C)c2C)C3)C[C@@H]1CC#N` [Compound 281, 2-[(2S)-4-(2-{[(2S,5R)-5-{[4-({4-[3-(2,4-dihydroxy-5-isopropylphenyl)-5-hydroxy-1,2,4-triazol-4-yl]phenyl}methyl)piperazin-1-yl]methyl}-1-methylpyrrolidin-2-yl]methoxy}-7-(2,3-dimethylphenyl)-5H,6H,8H-pyrido[3,4-d]pyrimidin-4-yl)-1-(prop-2-enoyl)piperazin-2-yl]acetonitrile] displayed a DC50 of 100 to 1000 nM. This compound returned an EC50 in experiment [2] of 100 to 1000 nM. The IC50 in experiment [3] was less than 100 nM.
As for `C=CC(=O)N1CCN(c2nc(OC[C@@H]3CC[C@H](CN4CCN(Cc5ccc(-n6c(C(=O)NCC)nnc6-c6cc(C(C)C)c(O)cc6O)cc5)CC4)N3C)nc3c2CCN(c2cccc(C)c2C)C3)C[C@@H]1CC#N` [Compound 282, 4-{4-[(4-{[(2R,5S)-5-[({4-[(3S)-3-(cyanomethyl)-4-(prop-2-enoyl)piperazin-1-yl]-7-(2,3-dimethylphenyl)-5H,6H,8H-pyrido[3,4-d]pyrimidin-2-yl}oxy)methyl]-1-methylpyrrolidin-2-yl]methyl}piperazin-1-yl)methyl]phenyl}-5-(2,4-dihydroxy-5-isopropylphenyl)-N-ethyl-1,2,4-triazole-3-carboxamide], in experiment [1], the DC50 was 100 to 1000 nM. Further, the half-maximal effective concentration (EC50) in experiment [2] is 100 to 1000 nM. Also, in experiment [3], the IC50 is less than 100 nM.
In the case of `C=CC(=O)N1CCN(c2nc(OC[C@@H]3C[C@H](N4CCN(C(=O)C5CCN(Cc6ccc(-n7c(C(=O)NCC)nnc7-c7cc(C(C)C)c(O)cc7O)cc6)CC5)CC4)CN3C)nc3c2CCN(c2cccc4cccc(Cl)c24)C3)C[C@@H]1CC#N` [Compound 283, 4-{4-[(4-{4-[(3S,5S)-5-({[7-(8-chloronaphthalen-1-yl)-4-[(3S)-3-(cyanomethyl)-4-(prop-2-enoyl)piperazin-1-yl]-5H,6H,8H-pyrido[3,4-d]pyrimidin-2-yl]oxy}methyl)-1-methylpyrrolidin-3-yl]piperazine-1-carbonyl}piperidin-1-yl)methyl]phenyl}-5-(2,4-dihydroxy-5-isopropylphenyl)-N-ethyl-1,2,4-triazole-3-carboxamide], the DC50 in experiment [1] is less than 100 nM. In experiment [2], this compound had an EC50 of 100 to 1000 nM. Moreover, in experiment [3], the IC50 was less than 100 nM.
In experiment [1], `C=CC(=O)N1CCN(c2nc(OCC3(CN4CCN(Cc5ccc(-n6c(O)nnc6-c6cc(C(C)C)c(O)cc6O)cc5)CC4)CC3)nc3c2CCN(c2cccc4cccc(Cl)c24)C3)C[C@@H]1CC#N` [Compound 284, 2-[(2S)-4-[7-(8-chloronaphthalen-1-yl)-2-[(1-{[4-({4-[3-(2,4-dihydroxy-5-isopropylphenyl)-5-hydroxy-1,2,4-triazol-4-yl]phenyl}methyl)piperazin-1-yl]methyl}cyclopropyl)methoxy]-5H,6H,8H-pyrido[3,4-d]pyrimidin-4-yl]-1-(prop-2-enoyl)piperazin-2-yl]acetonitrile] came in with a DC50 of 100 to 1000 nM. The EC50 in experiment [2] is 100 to 1000 nM. Further, the IC50 in experiment [3] was less than 100 nM.
